From publication PMC12955800 (ACS chemical neuroscience, 2021)
“Also recorded” adds a separate entry of the source.

Tests used:
A. suum ovijector tissue = assay: Ascaris suum ovijector bioassay
[1] = tested on: C. elegans (acs-20 cuticle defective mutant); assay: C. elegans body length assay; assay type: in vivo, Caenorhabditis elegans; settings: 100 μM synthetic As-FLP-18A, 96 h, 20 °C, vs S-medium, n > 9 nematodes
[2] = tested on: C. elegans (acs-20 cuticle defective mutant); assay: wMicroTracker motility assay; assay type: in vivo, Caenorhabditis elegans; settings: 10 μM synthetic As-FLP-18A, M9, 12 h, n > 4 wells
[3] = synthetic As-FLP-18A, 10 μM, HBSS, 10 min

Row | Substance | effect on ovijector contractility (A. suum ovijector tissue; truncated synthetic peptide GFGDEMSMPGVLR, 10 μM) | effect on ovijector muscle (A. suum ovijector tissue; synthetic As-FLP-18A, 1 nM to 10 μM, 10 min) | effect on ovijector muscle (A. suum ovijector tissue; synthetic As-FLP-18A, 10 nM to 1 μM) | response type (RT) on ovijector (A. suum ovijector tissue; synthetic As-FLP-18A, 1 μM to 10 nM, 10 min) | effect on ovijector muscle (A. suum ovijector tissue; synthetic As-FLP-18A, 1 μM, RT-2-like) | preparations with RT-1 response (A. suum ovijector tissue; [3]) | preparations with RT-2 response (A. suum ovijector tissue; [3]) | C. elegans growth (body length) [1] | C. elegans motility (locomotory activity) [2]
1 | GFGDEMSMPGVLR [truncated As-FLP-18A] | lacks biological activity in A. suum muscle physiology assays | – | – | – | – | – | – | – | –
2 | GFGDEMSMPGVLRF-NH2 [As-FLP-18A] | – | concentration dependent myoexcitatory effects | consistent excitatory effects | RT-2 responses only | transient muscle contraction followed by muscle paralysis | 64.2 % of preparations | 35.7 % of preparations | this effect was mirrored; also recorded: significantly reduced | significant inhibition of locomotion; also recorded: significantly reduced
